Data on 17 compounds can be found in US8048897B2, “Cyclohexane derivative, prodrug thereof and salt thereof, and therapeutic agent containing the same for diabetes” (Chugai Seiyaku Kabushiki Kaisha, priority 2004, dated 2011).

The test addresses T1, human SGLT2 (Homo sapiens, UniProt P31639).
T1 construct: expressed in transfected cells; host or cells: CHO-K1
T1 sequence (P31639 1-672): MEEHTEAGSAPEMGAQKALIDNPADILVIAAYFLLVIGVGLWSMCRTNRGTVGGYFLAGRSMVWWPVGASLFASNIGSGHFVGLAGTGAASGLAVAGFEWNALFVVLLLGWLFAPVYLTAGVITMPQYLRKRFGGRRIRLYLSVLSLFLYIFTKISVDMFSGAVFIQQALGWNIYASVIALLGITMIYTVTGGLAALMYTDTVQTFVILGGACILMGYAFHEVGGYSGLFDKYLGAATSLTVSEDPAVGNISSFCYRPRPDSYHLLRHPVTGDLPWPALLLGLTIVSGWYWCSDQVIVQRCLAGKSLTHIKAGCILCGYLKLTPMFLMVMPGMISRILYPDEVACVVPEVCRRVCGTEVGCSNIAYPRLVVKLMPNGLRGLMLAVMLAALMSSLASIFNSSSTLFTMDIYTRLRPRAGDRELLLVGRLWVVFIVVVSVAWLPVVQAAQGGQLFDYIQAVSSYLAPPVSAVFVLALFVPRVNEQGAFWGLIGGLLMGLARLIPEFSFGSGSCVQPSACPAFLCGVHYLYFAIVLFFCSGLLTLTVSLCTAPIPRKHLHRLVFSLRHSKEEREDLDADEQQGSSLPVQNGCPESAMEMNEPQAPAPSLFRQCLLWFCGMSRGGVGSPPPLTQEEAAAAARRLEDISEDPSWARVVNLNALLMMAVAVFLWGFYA
Nature of the test: Methyl-α-D-glucopyranoside intake inhibition activity in human SGLT2 stable expression CHO cells. The format is cell-based. The following applies: methyl-α-D-(U-14C)glucopyranoside intake, 37° C., 45 minutes. Here is the method: Test for Confirming Action of Inhibiting Human Na^+-Glucose Co-Transporters (SGLT1 and SGLT2)
(2) Preparation of Human SGLT2 Expression Vector
PCR was performed by KOD+DNA polymerase by taking a human kidney-derived cDNA library (a product of Clontech) as a template with the use of a synthesized DNA primer to amplify human SGLT2 cDNA. […] From the proliferated E. coli, a plasmid was purified according to the usual way. By taking this plasmid as a template, PCR was performed by KOD+DNA polymerase with the use of a synthetic DNA primer into which restriction enzyme recognition sites had been introduced to amplify human SGLT2 cDNA (a fragment added with Xho I recognition site on the upstream side and a Hind III recognition site on the downstream side). This amplified fragment was subjected to Xho I and Hind III digestion, and the digested fragments were connected to their recognition sites of the expression vector pcDNA 3.1(−) with the use of the Rapid DNA Ligation kit. The connected expression vector was introduced into E. coli competent cells (DH5α) and proliferated in an ampicillin-containing LB medium to obtain a human SGLT2 expression vector according to the usual way.
(3) Preparation of Human SGLT1 Stable Expression Cell and Human SGLT2 Stable Expression Cell
The human SGLT1 expression vector or the human SGLT2 expression vector which was digested with restriction enzyme Pvu I was introduced into CHO-K1 cells with the use of FuGene (a product of Roche Diagonostics). After introduction of the gene, the cells were incubated in a DMEM medium (a product of Gibco) containing penicillin (50 U/mL, a product of Sigma), streptomycin (50 mg/L, a product of Sigma), Geneticin (200 mg/L, a product of Nakalai Tesque) and 20% bovine fetal serum in the presence of 5% CO2 at 37° C. for about three weeks to obtain Genticin-resistant clones. From these clones, cells capable of stably expressing human SGLT1 or the human SGLT2 were selected and obtained by using sodium dependent sugar (methyl-α-D-glucopyranoside) intake activity as an index.
(4) Measurement of Methyl-α-D-glucopyranoside Intake Inhibition Activity
The human SGLT1 stable expression CHO cells or the human SGLT2 stable expression CHO cells was seeded in a 96-well plate to a density of 30,000 to 40,000 cells/well and incubated for four to six days. Next, the medium of the culture plate was removed, and a pretreatment buffer (a buffer containing 140 mM of choline chloride, 2 mM of potassium chloride, 1 mM of calcium chloride, 1 mM of magnesium chloride, 10 mM of 2-[4-(2-hydroxyethyl)-1-piperazinyl]ethanesulfonic acid and tris(hydroxymethyl)-aminomethane and having a pH of 7.4) was added in an amount of 150 μL per well and then left to stand at 37° C. for 20 minutes. The pretreatment buffer was removed and the pretreatment buffer was again added in an amount of 50 μL per well and then left to stand at 37° C. for 20 minutes. To 100 mL of a buffer (a buffer containing 140 mM of sodium chloride, 1 mM of potassium chloride, 1 mM of magnesium chloride, 1 mM of methyl-α-D-glucopyranoside, 10 mM of 2-[4-(2-hydroxyethyl)-1-piperazinyl]ethanesulfonic acid and tris(hydroxymethyl)aminomethane and having a pH of 7.4), there was added and mixed 6.3 mL of methyl-α-D-(U-^14C)glucopyranoside (200 mCi/L, a product of Amersham Pharmacia Biotech) to prepare an intake buffer, and a test compound was dissolved in this intake buffer and the resulting solution was used as a buffer for determining inhibition activity. Further, as a control, a test compound-free intake buffer was used. Furthermore, in order to determine a basic intake in the absence of the test compound and sodium, a basic intake buffer containing 140 mM of choline chloride instead of the sodium chloride was prepared in the same manner and used in the determina-tion. […]
In general, IC50 refers to the point on the concentration scale where inhibition reaches its midpoint. The low end stands for inhibition by little substance, the high end for a need for much substance. `CCc1ccc(Cc2sccc2O[C@@H]2C[C@H](CO)[C@@H](O)[C@H](O)[C@H]2O)cc1` [Example 55, [2-(4-Ethylbenzyl)thiophen-3-yl]-5a-carba-β-D-gluco-pyranoside] came in with a 50% inhibitory concentration (IC50) of 17 nM.

`CSc1ccc(Cc2ccccc2O[C@@H]2C[C@H](CO)[C@@H](O)[C@H](O)[C@H]2O)cc1` [Example 11, [2-(4-Methylsulfanylbenzyl)phenyl]-5a-carba-β-D-gluco-pyranoside] gave a 50% inhibitory concentration (IC50) of 14 nM.

`COc1ccc(Cc2ccc(C)cc2O[C@@H]2C[C@H](CO)[C@@H](O)[C@H](O)[C@H]2O)cc1` [Example 54, [2-(4-Methoxybenzyl)-5-methylphenyl]-5a-carba-β-D-gluco-pyranoside]: the 50% inhibitory concentration (IC50) worked out at 14 nM.

With `COc1ccc(Cc2cccc([C@@H]3C[C@H](CO)[C@@H](O)[C@H](O)[C@H]3O)c2)cc1` (single isomer, unassigned) [Example 2], the IC50 is 111 nM. This IC50 is about 7.9-fold higher than that of the compound before.

`CCOc1ccc(Cc2ccc(CC)cc2)cc1[C@@H]1C[C@H](CO)[C@@H](O)[C@H](O)[C@H]1O` [Example 68, (1R,2R,3S,4S,6R)-4-[2-Ethoxy-5-(4-ethylbenzyl)phenyl]-6-(hydroxymethyl)cyclohexane-1,2,3-triol] returned a half-maximal inhibitory concentration (IC50) of 18 nM.

`OC[C@H]1C[C@@H](Oc2ccccc2Cc2ccc(C3CC3)cc2)[C@H](O)[C@@H](O)[C@@H]1O` [Example 8, [2-(4-Cyclopropylbenzyl)phenyl]-5a-carba-β-D-glucopyranoside] came in with an IC50 of 7 nM. This IC50 lies about 2.6-fold lower than the previous one.

In turn, `CCc1ccc(Cc2cc([C@]3(O)C[C@H](CO)[C@@H](O)[C@H](O)[C@H]3O)c(OC)cc2OC)cc1` [Example 69, (1R,2R,3S,4R,5R)-1-[5-(4-Ethylbenzyl)-2,4-dimethoxy-phenyl]-5-(hydroxymethyl)cyclohexane-1,2,3,4-tetraol] had an IC50 of 5.1 nM.

`CCc1ccc(Cc2cccc(C3=C[C@H](CO)[C@@H](O)[C@H](O)[C@H]3O)c2)cc1` [Example 64, (1R,2S,3S,6R)-4-[3-(4-Ethylbenzyl)phenyl]-6-(hydroxy-methyl)cyclohex-4-ene-1,2,3-triol] came in with an IC50 of 6.6 nM.

With `CCc1ccc(Cc2ccc(OC)c([C@]3(O)C[C@H](CO)[C@@H](O)[C@H](O)[C@H]3O)c2)cc1` [Example 73, (1R,2R,3S,4R,5R)-1-[5-(4-Ethylbenzyl)-2-methoxyphenyl]-5-(hydroxymethyl)cyclohexane-1,2,3,4-tetraol], the concentration for half-maximal inhibition (IC50) is 11 nM.

`OC[C@H]1C[C@@H](Oc2cnccc2Cc2ccc(C3CC3)cc2)[C@H](O)[C@@H](O)[C@@H]1O` [Example 42, [4-(4-Cyclopropylbenzyl)pyridin-3-yl]-5a-carba-β-D-gluco-pyranoside] gave a 50% inhibitory concentration (IC50) of 7.7 nM.

As for `OCC1=C[C@@H](Oc2ccccc2Cc2ccc(C3CC3)cc2)[C@H](O)[C@@H](O)[C@@H]1O` [Example 62, (1R,2S,3R,6R)-6-[2-(4-Cyclopropylbenzyl)phenoxy]-4-(hydroxymethyl)cyclohex-4-ene-1,2,3-triol], the IC50 was determined as 7.1 nM.

The compound `C=Cc1ccc(Cc2ccccc2O[C@@H]2C[C@H](CO)[C@@H](O)[C@H](O)[C@H]2O)cc1` [Example 44, [2-(4-Vinylbenzyl)phenyl]-5a-carba-β-D-glucopyranoside] showed a half-inhibitory concentration (IC50) of 16 nM.

With `CCc1ccc(Cc2cc([C@@H]3C[C@H](CO)[C@@H](O)[C@H](O)[C@H]3O)c(OC)cc2OC)cc1` [Example 70, (1R,2R,3S,4S,6R)-4-[5-(4-Ethylbenzyl)-2,4-dimethoxy-phenyl]-6-(hydroxymethyl)cyclohexane-1,2,3-triol], the concentration for half-maximal inhibition (IC50) stood at 7.4 nM. This IC50 lies about 2.2-fold lower than the previous one.

Compound `Cc1cc(O[C@@H]2C[C@H](CO)[C@@H](O)[C@H](O)[C@H]2O)c(Cc2ccc(C3CC3)cc2)s1` [Example 59, [2-(4-Cyclopropylbenzyl)-5-methylthiophen-3-yl]-5a-carba-β-D-glucopyranoside] had a half-maximal inhibitory concentration (IC50) of 8.9 nM. This IC50 and that of the compound before are within 1.5-fold of each other.

In turn, `CCc1ccc(Cc2ccccc2O[C@@H]2C[C@H](CO)[C@@H](O)[C@H](O)[C@H]2O)cc1` [Example 25, [2-(4-Ethylbenzyl)phenyl]-5a-carba-β-D-glucopyranoside] had a 50% inhibitory concentration (IC50) of 31 nM.

As to `COc1ccc(Cc2ccccc2O[C@@H]2C[C@H](CO)[C@@H](O)[C@H](O)[C@H]2O)cc1` [Example 1, [2-(4-Methoxybenzyl)phenyl]-5a-carba-β-D-glucopyranoside], half-maximal inhibition (IC50) required 61 nM.

Compound `COc1ccc(Cc2c(F)cccc2O[C@@H]2C[C@H](CO)[C@@H](O)[C@H](O)[C@H]2O)cc1` [Example 12] had a half-inhibitory concentration (IC50) of 18 nM.
